Assay results reported in patent US5731286A, “Cyclic neurokinin A antagonists” (Merrell Pharmaceuticals, Inc., priority 1997, dated 1998).

System: rat urinary bladder
Experiment: In situ rat urinary bladder preparation, NKA-induced bladder contraction
Format: in vivo
Experimental: FIG. 6. […] Continuous tracing shown for each animal.
Rats, (female Sprague-Dawley, 150-200 g) were anesthetized with ketamine HCl (100 mg/kg i.p.) supplemented with urethane (1.2 g/kg i.p.). […] A needle was inserted into the apex of the bladder dome and saline was perfused through the bladder at a rate of 100 μl per minute. Bladder outflow was collected via a polyethylene cannula inserted into the urethra. Bladder contractions were monitored through a flow pressure transducer connected in series with the perfusion system. Test compounds were applied onto the bladder dome in 40-100 μl of saline or saline containing a minimum of DMSO. […] Antagonist was similarly applied onto the bladder 5 min before a repeated application of NKA. […] Amplitude (force) of contraction and 1-min time intervals were recorded continuously for each animal.

Substance: neurokinin A [NKA]
- Effect on bladder contraction when applied onto the dome of the exposed bladder (anesthetized rats, 10 μg topical): sustained tonic contraction and an increase in frequency
- Threshold concentration for contraction (applied onto bladder dome, anesthetized rats): approximately 10 μg
- Tachyphylaxis on repeated application (repeated application of 10 μg): did not result in any tachyphylaxis
